Test results from patent US10898548B2, “Modulators of protein tyrosine phosphatase and uses thereof” (LEUVAS THERAPEUTICS, priority 2015, dated 2021).

Columns and labels:
Assay type in all cases: cell-based
U251 cells = assay: TUNEL labeling assay, U251 cells; conditions: 50 μM P1-WD
Description: Briefly, U251 GBM cells, normal primary cortical murine neurons and a mixed culture of murine microglia and astrocytes were treated for 24, 48 and 72 hours with no treatment (control), delivery peptide (P1 or TAT) or increasing concentrations of P1-WD or TAT-ICD. Cell viability and survival was measured using the MTT assay, a colorimetric assay for assessing cell metabolic activity set up under conditions where the absorption reflects the number of viable cells present (Table 21 and 22) and expressed as relative absorption at 570 nm. Early apoptosis was measured using VYBRANT DyeCycle Violet stain (Molecular Probes), a DNA-selective, cell membrane-permeant dye that can distinguish the compacted state of the nuclear chromatin in apoptotic cells as determined by flow cytometry and presented as the percent of cells that are apoptotic (Table 23 and 24). The actual number of cells following treatment with TAT-ICD or TAT alone (Table 25) was determined using flow cytometry compared to an input of 5,000 cells at time zero. To confirm apoptosis the TUNEL labeling assay, which detects DNA strand breaks in apoptotic cells by fluorescence microscopy, was also used to examine U251 cells treated with the PTPRG WD. Briefly, the assay used an optimized terminal transferase ([…]) to label 3′OH ends in genomic DNA with TMR-dUTP, thus allowing the measurement and quantification of cell death by apoptosis. U251 cells were pretreated for 1, 3 and 6 hours with 50 μM P1-WD. Then cells were fixed and permeabilized, incubated with TUNEL reaction mixture for 1 h at RT, and then stained with DAPI (for nuclei detection) and with Alexa670-Phalloidin (to detect actin in cell membranes). After the staining steps, cells were visualized with a confocal microscope.
This finding was validated using the TUNEL in situ apoptosis cell death detection staining.

human primary monocytes [1] = assay: static adhesion of fMLP-stimulated monocytes to ICAM-1; conditions: CTRL 100; for fMLP-triggered static adhesion to ICAM-1: monocytes; for fMLP-induced adhesion to ICAM-1: 40 μM P1 or P1-TKIP, 100 μM AG490, 200 μM WHI-P154, 1 hour, 50 nM fMLP 60 sec
Description: We investigated the functional effect of PTPRG activation on integrin activation and mediated adhesion by chemoattractants in human primary monocytes and PMNs in a static and flow adhesion assays. Briefly, human primary monocytes or polymorphonuclear cells were suspended at 5×10^6/ml in standard adhesion buffer. Adhesion assays were performed on 18-well glass slides coated with 1 mg/ml human fibrinogen or with 1 μg/ml human ICAM-1 in PBS; 20 μl of cell suspension were added to the coated wells and stimulated for 1 min at 37° C. with 5 μl of fMLP, 0.05 μM final concentration. After rapid washing, adherent cells were fixed in ice-cold 1.5% glutaraldehyde in PBS, and still images of adherent cells in 0.2 mm^2 fields were acquired al 20× phase contrast magnification, NA 0.40, with a charge-coupled device camera (ICD-42B; Ikegami) connected to an inverted microscope (IX50; Olympus). Image acquisition and computer-assisted enumeration of adherent cells were performed with ImageJ (National Institute of Health).
We then investigated the functional effect of TAT-ICD on integrin activation and mediated adhesion by chemoattractants. Static adhesion assays were performed as described in Example 2. […] Data are mean number of adherent cells in 5 experiments in triplicate.
To evaluate whether JAK2 mediates chemoattractant-induced adhesion of human monocytes to beta-2 integrin substrates human monocytes were treated control buffer or P1 or with the three JAK inhibitors. Briefly, human monocytes were treated with buffer (CTRL=control), or 40 μM P1 or P1-TKIP peptides, 100 μM AG490 or 200 μM WHI-P154 for 1 hour at 37° C. and stimulated with 50 nM fMLP for 60 sec.; data are mean and standard deviation (SD) of 6 experiments in triplicate.
Human primary monocytes were isolated from buffy coats from healthy donors and pre-incubated for 30 minutes at room temperature with our without 0.075 micromolar PTPX. Standard adhesion assays on ICAM-1 coated glass slides. Cell suspensions were added to the coated wells for 1 minute, stimulated for 1 minute at 37° C. with […] fMLP. Non-adherent cells were washed away and adherent cells were fixed in ice-cold 1.5% glutaraldehyde in PBS and adherent cells were counted using computer assisted automatic quantification. Data are from a representative experiment and are the mean and standard deviation of 24 measurements per condition (Table 35).

human primary monocytes [2] = assay: underflow adhesion of monocytes on E-selectin/ICAM-1 (BioFlux); conditions: for arrest 1 sec, flow assay / arrest 10 sec, flow assay / rolling cells, flow assay: Table 3, concentration not given; for arrest 1 sec, flow assay: CTRL 24; for rolling cells, flow assay: CTRL 50
Description: Flow-adhesion assays were also performed to test the ability of the P1-WD peptide to inhibit adhesion of human monocytes under flow conditions. Briefly, Human primary monocytes were suspended at 1×10^6/ml in standard adhesion. Cell behavior in underflow conditions was analyzed with the BioFlux 200 system (Fluxion Biosciences). 48-well plate microfluidics were first co-coated overnight at room temperature with 2.5 μg/ml human E-selectin and 5 μg/ml human ICAM-1 in PBS. Immediately before use, microfluidic channels were washed with PBS and then coated with 10 nM fMLP in PBS for 3 h at room temperature. After extensive washing of microfluidics with adhesion buffer, cells were fluxed at 2 dyne/cm^2 wall shear stress and the behavior of interacting cells was digitally recorded with a fast CCD videocamera (25 frames/s). Single areas of 0.2 mm^2 were recorded for at least 120 s. Interactions of 40 ms or longer were considered significant and scored. Cells that remained firmly adherent for at least 1 s were considered fully arrested. Cells arrested for at least 1 s and then detached, or for 10 s and then remained adherent, were scored separately and plotted as independent groups. Interacting cells behaviors were automatically quantified with BeQuanti.
Briefly, human monocytes were treated with buffer (CTRL), 50 μM TAT peptides, or 0.5 μM TAT-ICD for 1 hour at 37° C. Data are percentages of rolling and arrested cells for the indicated times over total interacting cells; mean values of 4 experiments.
Briefly, Human monocytes were treated with buffer (CTRL=control), 100 μM AG490, 40 μM P1 or P1-TKIP peptides or 200 μM WHI-P154 for 1 hour at 37° C. Shown are percentages of rolling and arrested cells for the indicated times over total interacting cells; mean values of 5 experiments; errors bars are SDs.

[3] = 100 μM AG490, 40 μM P1 or P1-TKIP, 200 μM WHI-P154, 1 hour, CTRL 26
[4] = 100 μM AG490, 40 μM P1 or P1-TKIP, 200 μM WHI-P154, 1 hour, CTRL 34
[5] = 100 μM AG490, 40 μM P1 or P1-TKIP, 200 μM WHI-P154, 1 hour, CTRL 40
[6] = 50 μM TAT peptides or 0.5 μM TAT-ICD, 1 hour at 37° C., CTRL 12
[7] = 50 μM TAT peptides or 0.5 μM TAT-ICD, 1 hour at 37° C., CTRL 22
[8] = 50 μM TAT peptides or 0.5 μM TAT-ICD, 1 hour at 37° C., CTRL 66

Row | Compound | DNA fragmentation, TUNEL staining (U251 cells) | arrest 1 sec, flow assay (human primary monocytes [2]) | arrest 10 sec, flow assay (human primary monocytes [2]; CTRL 26) | rolling cells, flow assay (human primary monocytes [2]) | fMLP-induced adhesion to ICAM-1 (human primary monocytes [1]) [%] | cells arrested 10 sec over total interacting cells, flow assay (human primary monocytes [2]; [3]) [%] | cells arrested 1 sec over total interacting cells, flow assay (human primary monocytes [2]; [4]) [%] | rolling cells over total interacting cells, flow assay (human primary monocytes [2]; [5]) [%] | fMLP-triggered static adhesion to ICAM-1 (human primary monocytes [1]; 0.5 μM) | fMLP-triggered static adhesion to ICAM-1 (human primary monocytes [1]; 1 μM) | rolling cells over total interacting cells, flow assay (human primary monocytes [2]; [6]) [%] | cells arrested 1 sec over total interacting cells, flow assay (human primary monocytes [2]; [7]) [%] | cells arrested 10 sec over total interacting cells, flow assay (human primary monocytes [2]; [8]) [%] | further results
1 | P1-WD: fusion Trojan peptide SEQ ID 3: Penetratin, glycine, PTPRG wedge domain aa 831-856; RQIKIWFQNRRMKWKKGKQFVKHIGELYSNNQHGFSEDFEEVQ (listed as Homo sapiens) | fragmented DNA as early as 3 hours after initiation of treatment | 9 | 11 | 80 |  |  |  |  |  |  |  |  |  | fMLP-triggered static adhesion to ICAM-1 (human primary monocytes [1]; P1-WD 10 micromolar): 78; fMLP-triggered static adhesion to ICAM-1 (human primary monocytes [1]; P1-WD 25 micromolar): 40; fMLP-triggered static adhesion to ICAM-1 (human primary monocytes [1]; P1-WD 50 micromolar): 19
2 | P1: Penetratin delivery peptide, 16 aa RQIKIWFQNRRMKWKK (SEQ ID 4), control [reference compound] | did not show fragmented DNA or cell loss | 32 | 30 | 38 | 101 | 30 | 26 | 44 |  |  |  |  |  | fMLP-triggered static adhesion to ICAM-1 (human primary monocytes [1]; control peptide, concentration not given): 102
3 | TAT-ICD: fusion recombinant protein SEQ ID 5: PTPRG intracellular domain aa 797-1445 fused to 13 aa TAT sequence |  |  |  |  |  |  |  |  | 14 | 10 | 79 | 10 | 11 | fMLP-triggered static adhesion to ICAM-1 (human primary monocytes [1]; 0.01 μM): 48; fMLP-triggered static adhesion to ICAM-1 (human primary monocytes [1]; 0.05 μM): 36; fMLP-triggered static adhesion to ICAM-1 (human primary monocytes [1]; 0.10 μM): 30
4 | TAT (GRKKRRQRRRPPQ; listed as Homo sapiens) [reference compound] | did not show fragmented DNA or cell loss |  |  |  |  |  |  |  | 100 | 110 | 14 | 25 | 61 | 
5 | N#C/C(=C/c1ccc(O)c(O)c1)C(=O)NCc1ccccc1 [AG490] |  |  |  |  | 23.5 | 10 | 20 | 70 |  |  |  |  |  | 
6 | COc1cc2ncnc(Nc3ccc(O)c(Br)c3)c2cc1OC [WHI-P154] |  |  |  |  | 6.4 | 14 | 20 | 66 |  |  |  |  |  | 
